# Patent US9040507B2, “Method for treating inflammatory conditions” (Novelmed Therapeutics, Inc., priority 2008, dated 2015)
# “Also recorded” adds a separate entry of the source.
# Key:
# [1] = system: rat adjuvant induced arthritis (AIA), established disease; settings: male rats, 2.5 mg/kg IP every other day from day 16 to day 40, left and right paw; listed as TC 5, 2.5 mg/kg
# [2] = system: mouse collagen-induced arthritis (CIA); experiment: Mouse collagen-induced arthritis (CIA) model; format: in vivo, DBA/J1 mice; settings: dosing from day 18
# Description: Male DBA/J1 mice (7-9 weeks old from Jackson Labs, Bar Harbor, Me., USA) were used. The CIA study using mice of same age, strain and source was performed at Boulder BioPATH Inc as described below. Male DBA/J1 mice were shaved at the base of the tail and injected with 0.1 ml emulsion consisting of a 1 to 1 (1 mg/l mg) mixture of type II chicken collagen with Mycobacterium butyricum (Difco) as an adjuvant. Three weeks later, the mice were boosted with another 0.1 ml injection of emulsion at the base of the tail to induce disease. Dosing started at day 18 while the last boost to induce the disease was at day 21. The mice were scored in a blinded manner twice weekly for 3 weeks for signs of arthritis in each paw according to the following scale: clinical signs were evaluated using the following scale: 0=normal; 1=one joint affected or mild diffuse erythema and swelling; 2=two joints affected or mild diffuse erythema and swelling; 3=three joints affected or mild diffuse erythema and swelling; 4=four joint affected or marked diffuse erythema and swelling; and 5=severe erythema and severe swelling. Upon study completion (day 28), mice were killed with CO2.
# [3] = system: rat adjuvant induced arthritis (AIA); experiment: Prophylactic model of rat adjuvant induced arthritis (AIA); settings: for joint damage (radiographs; CT scan at 2.5 mg/kg): 2.5 mg/kg/day and 500 μg/kg/day IP; for paw inflammation (paw volume), dose effect: 2.5 mg/kg/day and 500 μg/kg/day IP from day 10, left and right paw; for joint histology (H&E staining): limb at study end
# [4] = system: rat adjuvant induced arthritis (AIA); settings: in vivo, ip, 5 mg/kg/day
# [5] = male rats, 500 μg/kg/day IP from day 10
# [6] = male rats, 10 mg/kg/day IP from day 10 for 14 days, left and right paw, 10 mg/kg/day
# [7] = male rats, 10 mg/kg/day IP, 10 mg/kg/day
# [8] = male rats, 10 mg/kg/day IP, limbs at study end, 10 mg/kg/day
# [9] = male rats, 5 mg/kg/day IP from day 10 for 14 days, right paw, 5 mg/kg/day
smiles,measurement,setting,value
"c1ccc(-c2ccc(C(c3ccccc3)n3ccnc3)cc2)cc1 (stereo not drawn) [TC5, 1-[phenyl(4-phenylphenyl)methyl]-1H-imidazole]",paw inflammation (paw volume),[1],halted the progression of the disease
same,clinical scoring of the paws (clinical signs of arthritis),"[2]; male mice, 2.5 and 0.25 mg/kg IP",significant prevention of arthritis with inhibition comparable to ENBREL
same,clinical scoring of the paws (clinical signs of arthritis),"[2]; male mice, 2.5 and 0.25 mg/kg IP, listed as TC 5",inhibited clinical signs of the disease comparable to ENBREL treated groups
same,clinical scoring of the paws (clinical signs of arthritis),"[2]; male mice, 2.5 and 0.25 mg/kg IP, listed as bifonazole",can reduce paw inflammation
same,paw inflammation (paw volume),[3]; [5],maximum inhibition observed at the 500 μg/kg/day
same,paw inflammation (paw volume),"[3]; male rats, 500 μg/kg/day IP from day 10, listed as TC 5",also reduced paw inflammation
same,paw inflammation (paw volume),"[3]; male rats, 2.5 mg/kg/day IP from day 10",demonstrated maximal effect similar to ENBREL
same,joint damage (radiographs; CT scan at 2.5 mg/kg),[3]; male rats,effective is preserving the joint damage at both concentrations; also recorded: able to prevent significant joint damage compared to the disease control in a dose dependent manner
same,"paw inflammation (paw volume), dose effect",[3]; male rats,can prevent development and progression of rat adjuvant induced arthritis dose dependently
same,paw inflammation (paw volume),[3]; [6],reduced paw inflammation to control levels similar to those observed for ENBREL
same,paw inflammation (paw volume),"[3]; male rats, 10 mg/kg/day IP from day 10 for 14 days, left and right paw, listed as bifonazole, 10 mg/kg/day",can reduce paw inflammation
same,joint histology (H&E staining),[3]; [7],"minimal inflammation, reduced bone proliferation, preservation of the cartilage, and preservation of the synovial membrane; also recorded: significant preservation of the synovium membrane (white space), significant preservation of the cartilage (space between the 2 blue lines), and minor bone proliferation"
same,"joint damage (radiographs, CT scans)",[3]; [8],prevents joint damage similar to those from ENBREL treated group; also recorded: able to prevent significant joint damage compared to the disease control; also recorded: significant reduction in bone damage in treated animals compared to diseased animals
same,"joint damage (radiographs, CT scans)","[3]; male rats, 10 mg/kg/day IP, limbs at study end, listed as bifonazole, 10 mg/kg/day",can reduce paw inflammation (FIGS. 1-2) and ankle damage
same,joint damage (radiographs; CT scan of 500 μg/Kg oral group),"[3]; male rats, 5, 2.5 and 0.5 mg/kg/day oral gavage",effective in preserving the joint damage at all three concentrations tested; also recorded: significant reduction in bone damage in treated animals compared to diseased animals
same,paw inflammation (paw volume),"[3]; male rats, 5, 2.5 and 0.5 mg/kg/day oral gavage from day 10",not as effective as the IP dosing
same,paw inflammation (paw volume),"[3]; male rats, 5, 2.5 and 0.5 mg/kg/day oral gavage from day 10, listed as TC 5",dose dependent with the highest dose demonstrated maximal effect
"COc1ccc(C(Cl)=C(c2ccc(OC)cc2)c2ccc(OC)cc2)cc1 [TC10, 1,1′,1″-(2-chloroethene-1,1,2-triyl)tris(4-methoxybenzene)]",clinical scoring of the paws (clinical signs of arthritis),"[2]; male mice, 25, 2.5 and 0.25 mg/kg IP",All three doses inhibited clinical signs of the disease; also recorded: significant prevention of arthritis with inhibition greater than ENBREL at all tested doses
same,clinical scoring of the paws (clinical signs of arthritis),"[2]; male mice, 25, 2.5 and 0.25 mg/kg IP, listed as chlorotrianisene",can reduce paw inflammation
same,joint damage (radiographs),"[3]; female rats, 2.5 and 0.5 mg/kg/day IP",effective in preserving the joint damage at both concentrations tested; also recorded: able to prevent significant joint damage compared to the disease control
same,paw inflammation (paw volume),"[3]; female rats, 2.5 and 0.5 mg/kg/day IP from day 10 for 12 days, listed as TC 10",inhibited at both doses
same,paw inflammation (paw volume),"[3]; female rats, 5 and 2.5 mg/kg/day oral",prevented paw inflammation; also recorded: significant reduction in paw inflammation
same,joint damage (radiographs),"[3]; female rats, oral, 5 mg/kg/day",effective in female rates in preserving joint damage
same,paw inflammation (paw volume),[3]; [5],also reduced paw inflammation; also recorded: comparable results to ENBREL
same,paw inflammation (paw volume),"[3]; male rats, 2.5 mg/kg/day IP from day 10, 2.5 mg/kg/day",maximal effect better than ENBREL with nearly complete inhibition of paw inflammation; also recorded: near complete prevention of arthritis bringing paw inflammation near the non-disease control; also recorded: maximum inhibition observed at 2.5 mg/kg/day dose bringing inflammation down to the non-disease control level
same,joint damage (radiographs; CT scan at 2.5 mg/kg),[3]; male rats,effective is preserving the joint damage at both concentrations; also recorded: shows preservation of the joint damage; also recorded: able to prevent significant joint damage at both doses 2.5 mg and 0.5 mg compared to the disease control in a dose dependent manner; also recorded: Joint damage was almost completely prevented with no joint damage
same,"paw inflammation (paw volume), dose effect",[3]; male rats,can prevent development and progression of rat adjuvant induced arthritis dose dependently with maximum effect observed at 2.5 dose
same,paw inflammation (paw volume),[3]; [9],reduced paw inflammation to control levels similar to those observed for ENBREL
same,paw inflammation (paw volume),"[3]; male rats, 5 mg/kg/day IP from day 10 for 14 days, right paw, listed as NM2026, 5 mg/kg/day",able to inhibit paw inflammation similar to the effects of ENBREL
same,paw inflammation (paw volume),"[3]; male rats, 5 mg/kg/day oral gavage from day 10, 5 mg/kg/day",can prevent development and progression of rat adjuvant induced arthritis; also recorded: not as effective as the IP dosing
same,paw inflammation (paw volume),"[3]; male rats, 5 mg/kg/day oral gavage from day 10, listed as TC 10, 5 mg/kg/day",inhibited paw inflammation to ENBREL controls
same,"joint damage (radiographs, CT scans)","[3]; male rats, 5 mg/kg/day oral gavage, 5 mg/kg/day",effectively preserves the joint damage; also recorded: able to prevent significant joint damage compared to the disease control at 5 mg/kg dose tested; also recorded: near complete prevention of joint destruction at 5 mg/kg/day compared to the diseased control
same,paw inflammation (paw volume),[3]; [6],can prevent development and progression of rat adjuvant induced arthritis comparable to the effects of ENBREL; also recorded: able to inhibit paw inflammation similar to the effects of ENBREL
same,paw inflammation (paw volume),"[3]; male rats, 10 mg/kg/day IP from day 10 for 14 days, left and right paw, listed as TC 10, 10 mg/kg/day",reduced paw inflammation to control levels similar to those observed for ENBREL
same,joint histology (H&E staining),[3]; [7],"minimal inflammation, reduced bone proliferation, preservation of the cartilage, and preservation of the synovial membrane; also recorded: significant preservation of the synovium membrane (white space), significant preservation of the cartilage (space between the 2 blue lines), and minor bone proliferation"
same,"joint damage (radiographs, CT scans)",[3]; [8],prevents joint damage similar to those from ENBREL treated group; also recorded: able to prevent significant joint damage compared to the disease control; also recorded: significant reduction in bone damage in treated animals compared to diseased animals
same,weight loss,[4],near negligible
"CC/C(=C(\c1ccccc1)c1ccc(OCCN(C)C)cc1)c1ccccc1 [Tamoxifen, (Z)-2-[4-(1,2-diphenylbut-1-enyl)phenoxy]-N,N-dimethyl-ethanamine]",paw inflammation (paw volume),[3]; [9],reduced paw inflammation to control levels similar to those observed for ENBREL
same,paw inflammation (paw volume),"[3]; male rats, 5 mg/kg/day IP from day 10 for 14 days, right paw, listed as tamoxifen, 5 mg/kg/day",can reduce paw inflammation
